Entries after “also recorded” stand apart in the source; their conditions may differ.
Columns and labels:
[1] = system: HCC-827 flank tumors; experiment: HCC-827 NSCLC xenograft flank model
Method: All animal studies were conducted in accordance with the guidelines established by the internal Institutional Animal Care and Use Committees. For CD8 IGF1R flank tumors, 5.0 × 10^5 cells/mouse were mixed with an equal volume of Matrigel (BD Biosciences) and injected subcutaneously into the flank of 6- to 8-week-old female nu/nu mice (22 g; Charles River Laboratories). The tumors were allowed to grow approximately 225 mm^3, and mice were reassigned into treatment groups (N = 10) based on tumor volume. At the initiation of treatment, the mean tumor volume ± SEM of the groups was approximately 231 ± 10 mm^3. For MiaPaCa-2 flank tumors, 1.0 × 10^6 cells/mouse were mixed with an equal volume of Matrigel and injected subcutaneously into the flank of 6- to 8-week-old female SCID mice (20 g; Charles River Laboratories). The tumors were allowed to grow approximately 225 mm^3, and mice were reassigned into treatment groups (N = 10) based on tumor volume. At the initiation of treatment, the mean tumor volume ± SEM of the groups was approximately 210 ± 30 mm^3. […] The tumors were allowed to grow approximately 225 mm^3, and mice were reassigned into treatment groups (N = 10) based on tumor volume. At the initiation of treatment, the mean tumor volume ± SEM of the groups was approximately 300 ± 20 mm^3. In all flank models, tumor growth was periodically analyzed by measurement with digital calipers and tumor volume was estimated from the formula (L × W ^2)/2. For all flank models, the effect of treatment on tumor growth rate was assessed by determining %T/C [(mean tumor volume of treated group on day X ÷ mean tumor volume of control group on day X) × 100].
Erlotinib was dosed orally at 3.1 mg/kg, b.i.d. for 16 days.

[2] = system: SK-N-FI cells; experiment: SK-N-FI proliferation in vitro; type: cell-based, human; details: SK-N-FI cell line
Method: (§1) Cells grown in soft agar were plated at 5,000 cells/well in 12-well tissue culture plates in a top layer of 0.3% noble agar on a 0.7% bottom layer. Media containing the final desired concentration of small molecule inhibitor was used as the agar overlay. For proliferation assays, 5,000 cells per well were plated in 96-well tissue culture treated plates and allowed to attach overnight. The following day small molecule inhibitors or DMSO control were added in duplicate at the indicated concentrations and cells were placed in tissue culture incubators for 72 hours. Cell viability was determined by an MTS assay (CellTiter Aqueous One, Promega, Madison, WI).

[3] = system: SK-N-FI renal subcapsule tumors; experiment: SK-N-FI neuroblastoma renal subcapsule xenograft model; type: in vivo, mice; details: 37.5 mg/kg i.p. b.i.d. for 14 days, end of dosing (day 28)
Method: For SK-N-FI renal subcapsule tumors, mice were anesthetized with intramuscular injections of ketamine (40 mg/kg) and rompum (5 mg/kg) before surgery. […] The peritoneal cavity was closed with 4-0 suture and skin incision was closed with clip. Fourteen days after tumor cell injection, tumor growth was assessed in cohort mice by necropsy (see Figure 1B) and study mice were reassigned at that time to treatment groups (N = 10) based on injection order. At the end of the dosing period, tumor weight was determined by comparing the weight of the tumor bearing kidney to that of the contralateral kidney.
Figure 5 Efficacy of A-928605 in the SK-N-FI neuroblastoma xenograft as a renal subcapsule model. A, A-928605 inhibits proliferation of SK-N-FI cells in vitro. […] B, Representative photograph taken of the tumor bearing and contralateral kidneys prior to the initiation of dosing on day 14 post tumor cell injection, indicating a tumor weight of 0.07 g. C, Representative photograph taken of the tumor bearing and contralateral kidneys at the end of the dosing schedule (day 28).

[4] = target: T1, epidermal growth factor receptor (EGFR) (Homo sapiens, UniProt P00533); experiment: Cellular EGFR phosphorylation in A-431 and HCC827 cells; type: cell-based; details: A-431 cells; read-out: IC50 for inhibition of cellular EGFR phosphorylation
T1 construct: endogenous in cells; host or cells: A-431 and HCC827 cells
T1 sequence (P00533 25-1210): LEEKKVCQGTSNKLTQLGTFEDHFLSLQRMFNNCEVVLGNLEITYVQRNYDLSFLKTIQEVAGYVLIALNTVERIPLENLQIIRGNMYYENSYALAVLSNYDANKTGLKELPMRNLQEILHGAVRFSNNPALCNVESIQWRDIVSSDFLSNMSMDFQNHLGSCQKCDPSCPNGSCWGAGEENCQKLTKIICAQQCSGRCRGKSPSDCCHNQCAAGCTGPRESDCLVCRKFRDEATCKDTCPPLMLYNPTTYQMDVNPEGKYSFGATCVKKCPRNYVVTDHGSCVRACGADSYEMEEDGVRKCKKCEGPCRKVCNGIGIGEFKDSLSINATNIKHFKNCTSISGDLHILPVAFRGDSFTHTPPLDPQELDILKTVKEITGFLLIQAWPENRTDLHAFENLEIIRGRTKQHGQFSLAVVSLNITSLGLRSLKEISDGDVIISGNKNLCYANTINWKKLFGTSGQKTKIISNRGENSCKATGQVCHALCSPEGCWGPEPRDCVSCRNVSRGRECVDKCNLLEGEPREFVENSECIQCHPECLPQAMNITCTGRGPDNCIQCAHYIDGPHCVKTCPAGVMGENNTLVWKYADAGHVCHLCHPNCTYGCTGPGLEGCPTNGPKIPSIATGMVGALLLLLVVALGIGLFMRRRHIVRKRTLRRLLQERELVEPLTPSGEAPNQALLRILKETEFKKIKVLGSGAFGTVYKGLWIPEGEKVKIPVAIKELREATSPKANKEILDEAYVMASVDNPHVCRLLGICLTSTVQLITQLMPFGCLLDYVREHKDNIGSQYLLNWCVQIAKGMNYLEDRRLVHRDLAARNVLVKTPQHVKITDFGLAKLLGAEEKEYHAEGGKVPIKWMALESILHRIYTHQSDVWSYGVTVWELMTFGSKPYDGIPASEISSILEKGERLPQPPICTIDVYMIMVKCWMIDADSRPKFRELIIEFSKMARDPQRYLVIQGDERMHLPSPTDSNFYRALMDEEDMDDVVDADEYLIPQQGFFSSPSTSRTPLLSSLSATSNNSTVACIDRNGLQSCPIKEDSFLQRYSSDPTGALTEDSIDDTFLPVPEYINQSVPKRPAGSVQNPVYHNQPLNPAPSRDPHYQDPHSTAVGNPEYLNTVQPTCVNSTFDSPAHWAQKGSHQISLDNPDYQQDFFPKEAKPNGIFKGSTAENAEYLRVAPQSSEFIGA

[5] = target: T2, epidermal growth factor receptor (EGFR) (Homo sapiens, UniProt P00533, DEL746-750); experiment: as above; type: cell-based; details: HCC827 cells; read-out: IC50 for inhibition of cellular EGFR phosphorylation
T2 construct: endogenous in cells; host or cells: A-431 and HCC827 cells
T2 sequence (P00533 with tags, fused parts or gaps DEL746-750): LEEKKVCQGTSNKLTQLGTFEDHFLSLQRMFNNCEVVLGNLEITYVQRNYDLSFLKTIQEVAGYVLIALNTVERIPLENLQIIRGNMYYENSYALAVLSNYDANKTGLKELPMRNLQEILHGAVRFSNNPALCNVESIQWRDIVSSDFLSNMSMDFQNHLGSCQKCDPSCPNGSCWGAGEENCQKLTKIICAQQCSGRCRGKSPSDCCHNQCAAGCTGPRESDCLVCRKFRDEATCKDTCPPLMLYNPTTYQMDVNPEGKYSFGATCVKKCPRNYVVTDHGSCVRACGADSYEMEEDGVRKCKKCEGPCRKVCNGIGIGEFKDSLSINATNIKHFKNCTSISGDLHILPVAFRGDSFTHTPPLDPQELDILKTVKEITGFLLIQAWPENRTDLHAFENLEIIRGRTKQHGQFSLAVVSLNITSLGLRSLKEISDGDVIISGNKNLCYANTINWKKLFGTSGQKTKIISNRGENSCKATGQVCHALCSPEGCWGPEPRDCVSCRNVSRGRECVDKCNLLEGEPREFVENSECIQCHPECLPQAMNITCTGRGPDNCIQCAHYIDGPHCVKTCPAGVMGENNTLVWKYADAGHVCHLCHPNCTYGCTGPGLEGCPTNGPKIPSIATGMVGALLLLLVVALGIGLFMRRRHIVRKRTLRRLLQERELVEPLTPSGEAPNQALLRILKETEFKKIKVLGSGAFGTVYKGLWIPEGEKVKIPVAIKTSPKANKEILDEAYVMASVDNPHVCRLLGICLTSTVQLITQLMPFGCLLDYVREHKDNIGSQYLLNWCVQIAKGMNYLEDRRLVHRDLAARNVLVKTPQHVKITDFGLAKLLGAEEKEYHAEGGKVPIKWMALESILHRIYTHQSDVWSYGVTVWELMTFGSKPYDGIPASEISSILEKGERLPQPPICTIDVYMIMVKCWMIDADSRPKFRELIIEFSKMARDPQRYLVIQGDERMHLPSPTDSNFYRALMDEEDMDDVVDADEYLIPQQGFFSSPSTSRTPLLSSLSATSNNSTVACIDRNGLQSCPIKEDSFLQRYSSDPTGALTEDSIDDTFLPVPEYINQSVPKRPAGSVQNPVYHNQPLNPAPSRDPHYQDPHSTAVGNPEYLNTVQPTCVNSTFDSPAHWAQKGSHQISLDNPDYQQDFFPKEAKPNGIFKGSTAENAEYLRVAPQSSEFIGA

[6] = system: NIH-3T3 CD8-IGF1R cells; experiment: Morphology of CD8-IGF1R cells (phase contrast imaging); type: cell-based; details: increasing concentrations, imaging two days after addition
Method: Supplementary file 1471-2407-9-314-S1.jpeg: Additional File 1 Supplementary Figure S1. Transformed morphology of the CD8-IGF1R cells. A, Phase contrast images of the NIH-3T3 vector control cells versus the NIH-3T3 CD8-IGF1R cells. B, Morphological dose response of the CD8-IGF1R line to A-928605 treatment. Cells were plated and allowed to adhere and proliferate overnight. The next day compound was added and imaging was performed two days later. The cellular morphology appears to revert back towards a naive 3T3 fibroblast at concentrations near or […] the IC50 of A-928605. All images were captured with a 20× objective. Click here for file

[7] = system: MiaPaCa-2 flank tumors; experiment: MiaPaCa-2 pancreatic xenograft flank model; type: in vivo, mice; details: A-928605 37.5 mg/kg i.p. b.i.d. 20 days; cetuximab 30 mg/kg i.p. 3×/week, 6 doses
Method: All animal studies were conducted in accordance with the guidelines established by the internal Institutional Animal Care and Use Committees. For CD8 IGF1R flank tumors, 5.0 × 10^5 cells/mouse were mixed with an equal volume of Matrigel (BD Biosciences) and injected subcutaneously into the flank of 6- to 8-week-old female nu/nu mice (22 g; Charles River Laboratories). The tumors were allowed to grow approximately 225 mm^3, and mice were reassigned into treatment groups (N = 10) based on tumor volume. At the initiation of treatment, the mean tumor volume ± SEM of the groups was approximately 231 ± 10 mm^3. For MiaPaCa-2 flank tumors, 1.0 × 10^6 cells/mouse were mixed with an equal volume of Matrigel and injected subcutaneously into the flank of 6- to 8-week-old female SCID mice (20 g; Charles River Laboratories). The tumors were allowed to grow approximately 225 mm^3, and mice were reassigned into treatment groups (N = 10) based on tumor volume. […] In all flank models, tumor growth was periodically analyzed by measurement with digital calipers and tumor volume was estimated from the formula (L × W ^2)/2. For all flank models, the effect of treatment on tumor growth rate was assessed by determining %T/C [(mean tumor volume of treated group on day X ÷ mean tumor volume of control group on day X) × 100]. […]

[8] = system: NIH-3T3 CD8-IGF1R cells; experiment: Three day proliferation assay (MTS), NIH-3T3 CD8-IGF1R cells; type: cell-based
Method: as §1
(§2) All cells were grown in normal growth media containing 10% FBS. B, Cells were treated for 1 hour with A-928605 in a dose response analysis as shown. The CD8-IGF1R fusion protein runs as a doublet. C and D, Three day proliferation assay in the NIH-3T3 vector control cells (C) or CD8-IGF1R cells (D) with increasing amounts of six clinical small molecule inhibitors and A-928605. Compounds were run in duplicate at each indicated concentration. Results are representative of 5 separate assays. Intended targets of each small molecule inhibitor are as follows: lapatinib, ERBB2 and EGFR; gefitinib, EGFR; dasatinib, ABL and SRC; Sorafinib, multi-targeted; imatinib, ABL and KIT; erlotinib, EGFR.

[9] = target: IR (Homo sapiens, UniProt P06213); experiment: In vitro kinase panel (kinome profile), IR; type: biochemical
Chain of IR (P06213 28-1382): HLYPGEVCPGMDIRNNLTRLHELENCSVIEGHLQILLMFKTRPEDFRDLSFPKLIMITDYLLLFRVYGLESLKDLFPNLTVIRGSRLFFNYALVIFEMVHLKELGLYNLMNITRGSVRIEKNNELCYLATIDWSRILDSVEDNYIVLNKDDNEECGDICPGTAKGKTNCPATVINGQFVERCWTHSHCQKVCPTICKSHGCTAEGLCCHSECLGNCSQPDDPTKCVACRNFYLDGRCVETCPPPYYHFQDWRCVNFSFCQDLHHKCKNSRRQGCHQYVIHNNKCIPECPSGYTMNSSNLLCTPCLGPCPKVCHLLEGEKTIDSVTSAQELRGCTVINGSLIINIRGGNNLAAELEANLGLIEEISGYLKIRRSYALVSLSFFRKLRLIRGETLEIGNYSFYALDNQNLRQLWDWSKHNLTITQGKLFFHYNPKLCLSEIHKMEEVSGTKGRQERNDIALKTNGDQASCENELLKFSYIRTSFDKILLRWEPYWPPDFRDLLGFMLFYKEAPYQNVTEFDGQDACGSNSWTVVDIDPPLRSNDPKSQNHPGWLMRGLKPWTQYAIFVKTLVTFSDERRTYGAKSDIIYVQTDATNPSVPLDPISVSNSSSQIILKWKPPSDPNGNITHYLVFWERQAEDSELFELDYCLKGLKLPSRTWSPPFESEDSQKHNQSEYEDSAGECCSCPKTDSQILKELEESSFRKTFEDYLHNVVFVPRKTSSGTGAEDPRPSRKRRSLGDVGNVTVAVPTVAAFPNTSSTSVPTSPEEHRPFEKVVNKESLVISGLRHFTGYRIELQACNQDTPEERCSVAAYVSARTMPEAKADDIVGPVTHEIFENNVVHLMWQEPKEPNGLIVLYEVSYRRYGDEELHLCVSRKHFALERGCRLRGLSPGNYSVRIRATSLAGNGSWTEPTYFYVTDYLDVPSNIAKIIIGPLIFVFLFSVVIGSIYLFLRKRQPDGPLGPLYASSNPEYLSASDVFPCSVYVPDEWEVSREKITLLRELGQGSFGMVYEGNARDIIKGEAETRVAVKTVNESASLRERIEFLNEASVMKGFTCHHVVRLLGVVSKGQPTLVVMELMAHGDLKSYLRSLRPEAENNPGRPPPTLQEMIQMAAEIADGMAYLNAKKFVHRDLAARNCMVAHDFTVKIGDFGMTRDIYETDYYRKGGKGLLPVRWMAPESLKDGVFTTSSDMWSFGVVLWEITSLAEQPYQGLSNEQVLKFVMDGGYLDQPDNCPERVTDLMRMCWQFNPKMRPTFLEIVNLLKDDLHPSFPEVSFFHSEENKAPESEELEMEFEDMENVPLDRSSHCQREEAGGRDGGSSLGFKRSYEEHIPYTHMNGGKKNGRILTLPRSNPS
Method: (§3) Figure 1 Chemical structure and activity of A-928605. A, The chemical name of A-928605 is 3-(2-(2-chlorobenzyl)-1 H-benzo [d]imidazol-5-yl)-1-((1 r, 4 r)-4-morpholinocyclohexyl)-1 H-pyrazolo [3,4-d]pyrimidin-4-amine. B, Kinome profile analysis of A-928605 on 156 unique kinases. Heat map colors correspond to the relative Ki against each kinase, where Ki greater than 1,000 nM are colored green, near 100 nM are yellow and Ki of roughly 10 nM are shaded red.

[10] = system: CD8 IGF1R flank tumors; experiment: CD8-IGF1R xenograft flank model; type: in vivo, mice; details: 50 mg/kg i.p. b.i.d. for 10 days, end of dosing (day 26)
Description: Figure 4 A-928605 abrogates modifications of IGF pathway signaling proteins in vitro and is efficacious in the CD8-IGF1R xenograft flank model in vivo. […] Cyclin D1 is a transcriptional target of the IGF signaling pathway and is therefore not affected by this one hour treatment.

[11] = system: NIH-3T3 vector control cells; experiment: Three day proliferation assay (MTS), NIH-3T3 vector control cells; type: cell-based; details: 72 hours
Method: as §1, §2

[12] = target: T3, CD8-IGF1R (Homo sapiens, UniProt P01732+P08069); experiment: Western blot of IGF1R pathway phosphorylation and Cyclin D1 in NIH-3T3 CD8-IGF1R cells; type: cell-based, mouse; parameters: phosphorylation of the IGF1R cytotail, AKT and ERK1/2 / Cyclin D1 expression: dose or concentration left out as unconfirmed
T3 construct: cytoplasmic domain of human IGF1R (amino acids 959-1368); expressed in transfected cells
T3 sequence (P01732+P08069 fused): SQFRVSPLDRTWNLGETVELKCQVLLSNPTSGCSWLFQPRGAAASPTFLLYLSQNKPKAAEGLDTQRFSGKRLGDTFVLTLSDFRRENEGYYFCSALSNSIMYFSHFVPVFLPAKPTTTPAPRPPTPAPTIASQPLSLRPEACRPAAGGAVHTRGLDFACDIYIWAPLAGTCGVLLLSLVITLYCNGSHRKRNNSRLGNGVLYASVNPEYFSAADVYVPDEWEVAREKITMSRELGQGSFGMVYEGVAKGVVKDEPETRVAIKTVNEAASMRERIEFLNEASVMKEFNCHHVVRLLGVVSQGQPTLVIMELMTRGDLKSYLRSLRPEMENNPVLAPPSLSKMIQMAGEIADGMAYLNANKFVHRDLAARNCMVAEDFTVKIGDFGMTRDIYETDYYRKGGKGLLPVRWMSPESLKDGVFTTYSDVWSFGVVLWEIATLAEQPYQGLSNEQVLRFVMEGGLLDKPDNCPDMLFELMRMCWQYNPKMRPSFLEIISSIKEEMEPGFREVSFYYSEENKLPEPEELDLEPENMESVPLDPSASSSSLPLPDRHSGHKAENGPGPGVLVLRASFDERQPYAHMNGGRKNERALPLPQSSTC
Method: NIH-3T3, SK-N-FI, MiaPaCa-2 and HCC827 cell lines were obtained from the American Type Culture Collection (ATCC, Manassas, VA). Cell lines were cultured and expanded in media according to ATCC guidelines. CD8-IGF1R was generated by an in-frame fusion of the extracellular and transmembrane domains of the human CD8α coding sequence (amino acids 1-207) followed by a BamHI restriction site to the cytoplasmic domain of human IGF1R (amino acids 959-1368). This product was cloned into the pIRESpuro3 vector (Clontech, Mountain View, CA) via AflII/NotI adaptors. NIH-3T3 CD8-IGF1R and vector control lines were generated by transfection of these constructs with FuGENE 6 (Roche Diagnostics, Basel, Switzerland) followed by selection with 2 μg/ml puromycin. Cells were dilution cloned and surviving colonies were screened for expression of the transgene. Cell clones positive for CD8-IGF1R expression and vector alone transfectants were pooled and remained under puromycin selection for the duration of the study.
Antibodies used included rabbit anti-ERK1/2 pTpY185/187 (Biosource, Camarillo, CA), rabbit anti-IGF-1Rβ and rabbit anti-Cyclin D1 (Santa Cruz Biotechnology, Inc., Santa Cruz, CA), rabbit anti-phospho-IGF-1Rβ (Tyr1135/1136)/IR (Tyr1150/1151), rabbit antiphospho-AKT (S473), rabbit anti-AKT, rabbit anti-ERK1/2, (Cell Signaling Technology, Inc., Beverly, MA) and mouse anti-ACTIN (Sigma, St. Louis, MO). All cell lysate samples were lysed directly in 2× LDS NuPAGE sample buffer with reducing reagent (Invitrogen, Carlsbad, CA) and were analyzed for levels of phosphorylated and total signaling proteins by Western blotting using the NuPAGE electrophoresis and transfer systems (Invitrogen, Carlsbad, CA) and near infrared detection.
All cells were grown in normal growth media containing 10% FBS. B, Cells were treated for 1 hour with A-928605 in a dose response analysis as shown. The CD8-IGF1R fusion protein runs as a doublet. […]

[13] = system: NIH-3T3 CD8-IGF1R cells; experiment: DNA microarray analysis, CD8-IGF1R cells; type: cell-based; details: 1 μM, 24 hours
Method: Cells were treated with 1 μM of compound or DMSO control ([…] final concentration) and grown under normal conditions for 24 hours. Cells were then directly lysed in QIAzol RNA lysis reagent (Qiagen, Valencia, CA). Samples were homogenized using an Ultra Turrax T 25 homogenizer (IKA, Wilmington, SC) and then processed with the RNeasy 96 Universal Tissue 8000 kit (Qiagen, Valencia, CA) using a BioRobot 3000 liquid handler (Qiagen, Valencia, CA) and a Sigma 4K15C centrifuge (Sigma, Osterode am Harz, Germany) according to the Qiagen-prescribed protocol. […] GeneChip Operating Software (v1.4.036) was used to quantify perfect match and mismatch features on the scanned microarray images. After quantification, quality control was assured using the Affymetrix Power Tools Quality Reporter (v1.0.04) quality control metrics.
Data normalization and analysis were performed using Resolver 7.0 software (Rosetta Inpharmatics, Seattle, WA). Ratios were built for the average of each treatment versus the group average and a p-value was calculated for every-fold change using the Resolver Affymetrix error model. […]

[14] = target: IGF1R and IR; experiment: IGF1R versus IR in vitro enzyme activity and cellular phosphorylation; details: in vitro enzyme activity and cellular phosphorylation (data not shown)
[15] = target: IGF1R (Homo sapiens, UniProt P08069); experiment: In vitro kinase panel (kinome profile), IGF1R; type: biochemical
Method: as §3

[16] = system: NIH-3T3 CD8-IGF1R cells; experiment: Soft agar anchorage-independent growth assay; type: cell-based; details: 1 μM, three weeks
Method: as §1
Supplementary file 1471-2407-9-314-S2.jpeg: Additional File 2 Supplementary Figure S2. […] Cells were plated in soft agar with an overlay containing DMSO control (left) or a final concentration of 1 μM A-928605 (right). Cells were allowed to grow in a tissue culture incubator for three weeks before imaging. The 3T3 vector control line was not capable of anchorage-independent growth in soft agar (data not shown). Click here for file

## C#Cc1cccc(Nc2ncnc3cc(OCCOC)c(OCCOC)cc23)c1 [erlotinib, reference compound]
[1]; mouse, in vivo
  tumor response in words: partial responses

## Nc1ncnc2c1c(-c1ccc3[nH]c(Cc4ccccc4Cl)nc3c1)nn2[C@H]1CC[C@H](N2CCOCC2)CC1 [A-928605, 3-(2-(2-chlorobenzyl)-1 H-benzo [d]imidazol-5-yl)-1-((1 r, 4 r)-4-morpholinocyclohexyl)-1 H-pyrazolo [3,4-d]pyrimidin-4-amine]
[2]
  inhibition of proliferation in vitro: effectively inhibit proliferation
[1]; size-matched HCC827 xenografts, 16 days dosing
  tumor response in words: not consistently statistically different from its vehicle control; also recorded: partial responses
[3]
  %T/C (tumor weight, treated vs. vehicle): 58%
[4]
  IC50: > 10000 nM
[5]
  IC50: > 10000 nM
[6]
  transformed phenotype (morphology): reversal of their transformed phenotype
[7]
  %T/C, monotherapy compared to appropriate controls: approximately 80%
[8]; Mus musculus, NIH3T3, CD8-IGF1R cells, 72 hours, read-out: IC50, inhibition of cellular proliferation
  IC50: < 300 nM
[9]
  Ki: < 10 nM
[10]
  %T/C (tumor volume, treated vs. vehicle): 21%
[11]
  effect on cellular proliferation: little effect
[12]; 24-hours of treatment
  Cyclin D1 expression: significant decrease
[12]; CD8-IGF1R cell line, 1 hour treatment, inhibition near known cellular IC50, read-out: cellular phosphorylation IC50 (dose-dependent inhibition of IGF1R phosphorylation)
  IC50: ~100 nM
[12]; one hour of treatment, CD8-IGF1R cells
  phosphorylation of the IGF1R cytotail, AKT and ERK1/2: inhibition of phosphorylation
[13]
  decrease in Ccn d1 transcripts: 4.8 fold
  up-regulation of Cdkn1a (p21): 1.5 fold
[14]
  IC50s against IGF1R versus IR: roughly equipotent
[15]
  Ki: < 10 nM
[16]
  inhibition of anchorage-independent growth in soft agar: completely inhibiting; also recorded: inhibits growth

## Cc1nc(Nc2ncc(C(=O)Nc3c(C)cccc3Cl)s2)cc(N2CCN(CCO)CC2)n1 [Dasatinib, reference compound]
[8]; CD8-IGF1R line, concentrations up to 10 μM
  effect on cellular proliferation: no effect
[11]
  effect on cellular proliferation: potent inhibitor
